Data on one molecule can be found in the NIST ThermoML archive (doi:10.1016/j.tca.2018.02.007).

A short description of data set [1]: Molar enthalpy of transition or fusion. Conditions: DSC.
For data set [2] the following is noted: for thermal conductivity: 101.33 kPa, T-histrory method; for Triple point temperature: DSC.

Numbers after ± are expanded uncertainties.

As for `OCC(CO)(CO)CO` [2,2-bis(hydroxymethyl)-1,3-propanediol], the “Molar enthalpy of transition or fusion” value in data set [1] (Crystal 1) was 5.85 ± 0.27 kJ/mol; in data set [1] (Crystal 2) it was 35.9 ± 1.6 kJ/mol. Moreover, the thermal conductivity was 0.112 ± 0.007 W/m/K in data set [2] (340.65 K, Crystal 2); 0.108 ± 0.007 W/m/K in data set [2] (395.65 K, Crystal 2); 0.104 ± 0.006 W/m/K in data set [2] (450.65 K, Crystal 2). Also, the Triple point temperature in data set [2] (Crystal 1) amounted to 531.25 ± 0.8 K; in data set [2] (Crystal 2), 454.55 ± 0.8 K.
